Among the data in PubChem BioAssay (NCI) are TGI and GI50 values, retold here.

SMILES strings stand for the structures.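 Five concentrations, 48 hours, 96-well plates. The concentration for 50% growth inhibition is given as GI50. Definition used: TGI = concentration required for complete inhibition of growth.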 Some results are limits rather than exact numbers.

Some test systems named below: CAKI-1 renal; OVCAR-4 ovarian; SK-OV-3 ovarian; CCRF-CEM leukemia; HT29 colon; RXF 393 renal; MDA-MB-435; KM20L2 colon; MOLT-4 leukemia; RPMI-8226 leukemia.
Holding throughout (assay): NCI-60 cell line screen, 48 h

`CNC=O`: the TGI was greater than 10000 µM with CAKI-1 renal; greater than 10000 µM with OVCAR-4 ovarian; less than 3980 µM in the test on SK-OV-3 ovarian; greater than 10000 µM in the test on CCRF-CEM leukemia; greater than 10000 µM with HT29 colon; greater than 10000 µM with RXF 393 renal. The TGI in the test on MDA-MB-435, in the test on KM20L2 colon, in the test on MOLT-4 leukemia and in the test on RPMI-8226 leukemia was greater than 10000 µM in each case.
With `Nc1ccccc1Sc1ccc(Cl)cc1`, the TGI with OVCAR-4 ovarian is greater than 100 µM; in the test on SK-OV-3 ovarian, greater than 100 µM; with CCRF-CEM leukemia, 46.6 µM; in the test with HT29 colon, 36.3 µM; in the test with RXF 393 renal it was 32.1 µM; in the test with KM20L2 colon it was 42.9 µM. The compound further showed a TGI with RPMI-8226 leukemia of 67.9 µM.
In the case of `COc1cc(/C=C/C(=O)O)ccc1O`, the TGI with CAKI-1 renal, in the test on OVCAR-4 ovarian, in the test with CCRF-CEM leukemia, with HT29 colon, with MDA-MB-435 and in the test with MOLT-4 leukemia was greater than 100 µM throughout. Further, in the test on RPMI-8226 leukemia, the TGI was greater than 100 µM.
Take `COc1cc2cnc3c(c2cc1OC)Cc1cc2c(cc1-3)OCO2`: the GI50 in the test on CAKI-1 renal is less than 0.01 µM; in the test on OVCAR-4 ovarian, 13.6 µM; with SK-OV-3 ovarian, 0.0203 µM; with CCRF-CEM leukemia, less than 0.01 µM; in the test on HT29 colon, less than 0.01 µM; in the test on RXF 393 renal, 0.0322 µM. Moreover, the GI50 in the test with MOLT-4 leukemia and in the test on RPMI-8226 leukemia was less than 0.01 µM in each case. Moreover, the TGI in the test on CAKI-1 renal was greater than 74.7 µM; in the test with OVCAR-4 ovarian, greater than 62.8 µM; in the test with SK-OV-3 ovarian, 26 µM; in the test on CCRF-CEM leukemia it was 0.0344 µM; in the test with HT29 colon it was 73.4 µM; in the test on RXF 393 renal it was greater than 92.5 µM. The figures for the TGI in the test with MOLT-4 leukemia and in the test on RPMI-8226 leukemia were 0.205 µM and 85.7 µM, respectively.
For the compound `C/C(=C1/N=C(c2cc([N+](=O)[O-])ccc2Cl)N(C2=CC=C(Cl)CC2)C1=O)c1cc2ccccc2oc1=O`, the TGI with CAKI-1 renal, in the test with OVCAR-4 ovarian, in the test on SK-OV-3 ovarian, in the test with CCRF-CEM leukemia, in the test on HT29 colon and in the test on KM20L2 colon was greater than 100 µM in each case. The TGI in the test on MOLT-4 leukemia and in the test with RPMI-8226 leukemia was greater than 100 µM throughout.
In the case of `CCCCN(CCCC)c1ccc(N=Nc2ccc(S(=O)(=O)O)cc2)cc1`, the TGI was 49.6 µM in the test on CAKI-1 renal; 74.7 µM in the test on OVCAR-4 ovarian; greater than 100 µM in the test on SK-OV-3 ovarian; 38.4 µM in the test on CCRF-CEM leukemia; 85.1 µM in the test on HT29 colon; 29.8 µM in the test with RXF 393 renal. Further, the TGI is greater than 100 µM in the test with MDA-MB-435, 35.2 µM with MOLT-4 leukemia and 53.5 µM with RPMI-8226 leukemia.
On to `O=S(=O)(O)c1ccc(N=Nc2ccc(N=Nc3ccc(/C=C/c4ccc(N=[N+]([O-])c5ccc(/C=C/c6ccc(N=Nc7ccc(N=Nc8ccc(S(=O)(=O)O)cc8)c8ccccc78)cc6S(=O)(=O)O)c(S(=O)(=O)O)c5)cc4S(=O)(=O)O)c(S(=O)(=O)O)c3)c3ccccc23)cc1`, for which the TGI with OVCAR-4 ovarian, with SK-OV-3 ovarian, in the test with CCRF-CEM leukemia, in the test with HT29 colon, with RXF 393 renal and in the test with KM20L2 colon was greater than 100 µM in each case. The TGI with MOLT-4 leukemia and with RPMI-8226 leukemia was greater than 100 µM in each case.
Turning to `CC1=CC[C@H](C)C(C)(C)C1/C=C/C(C)=C/CC[C@@]1(CO)[C@H](CCCO)/C(=C(/C)C=O)CC[C@]1(C)O` (stereo partly drawn), the TGI in the test on CAKI-1 renal was determined as 10.5 µM; in the test on SK-OV-3 ovarian, 39.9 µM; in the test with CCRF-CEM leukemia, 24.9 µM; with HT29 colon, 12.1 µM; in the test with RXF 393 renal it was 28.1 µM; in the test with KM20L2 colon, 8.23 µM. The compound also yielded a TGI in the test with MOLT-4 leukemia of 20.5 µM.
On to `CC(=O)/C=C/c1c[nH]c(=O)[nH]c1=O`, for which the TGI in the test on CAKI-1 renal turned out to be 178 µM; in the test with OVCAR-4 ovarian, 883 µM; in the test on SK-OV-3 ovarian, 703 µM; with CCRF-CEM leukemia, 649 µM; in the test on HT29 colon, 847 µM; in the test with RXF 393 renal, 416 µM. In addition, the TGI is 508 µM with KM20L2 colon, 783 µM with MOLT-4 leukemia and 679 µM in the test with RPMI-8226 leukemia.
`C=CCN1C(=O)/C(=C/c2cccs2)N=C1SC1OC(COC(=O)c2ccccc2)C(OC(=O)c2ccccc2)C1OC(=O)c1ccccc1` (stereo not drawn): the TGI in the test with CAKI-1 renal was greater than 100 µM; in the test on OVCAR-4 ovarian it was greater than 100 µM; with SK-OV-3 ovarian, greater than 100 µM; in the test with CCRF-CEM leukemia, 80.9 µM; in the test with RXF 393 renal, greater than 100 µM; in the test with MDA-MB-435 it was greater than 100 µM. Also, the TGI in the test on MOLT-4 leukemia and in the test on RPMI-8226 leukemia was greater than 100 µM throughout.
Consider `C=C1C(C[C@@H]2O[C@H]3C[C@H]4O[C@@]5(C[C@@H]6O[C@]7(C[C@H](C)[C@@H]8O[C@@H]9CC(C(O)CO)O[C@@H]9C[C@@H]8O7)C[C@H](C)[C@@H]6O5)C[C@H]4O[C@H]3[C@H](C)[C@H]2O)O[C@@H](CC[C@@H]2O[C@@H](CC[C@@]34CC5O[C@H]6C(O[C@H]7CC[C@H](CC(=O)OC)O[C@@H]7[C@@H]6O3)[C@H]5O4)CC2=C)C[C@H]1C` (stereo partly drawn), for which the TGI with CAKI-1 renal is greater than 1 µM; with OVCAR-4 ovarian it was greater than 1 µM; in the test with SK-OV-3 ovarian, greater than 1 µM; in the test on CCRF-CEM leukemia, greater than 1 µM; in the test with RXF 393 renal, greater than 1 µM; with MDA-MB-435 it was 0.000183 µM. In addition, in the test on MOLT-4 leukemia, the TGI is greater than 1 µM.
Turning to `C[C@@H]1CCN(C(=O)CC#N)C[C@@H]1N(C)c1ncnc2[nH]ccc12`, the GI50 was 42.1 µM in the test on CAKI-1 renal; greater than 100 µM in the test on OVCAR-4 ovarian; 90.9 µM in the test with SK-OV-3 ovarian; greater than 100 µM in the test on HT29 colon; 16.3 µM in the test with RXF 393 renal; greater than 100 µM in the test on MDA-MB-435. The TGI was greater than 100 µM with CAKI-1 renal; greater than 100 µM with OVCAR-4 ovarian; greater than 100 µM in the test on SK-OV-3 ovarian; greater than 100 µM in the test with HT29 colon; 85.3 µM in the test on RXF 393 renal; greater than 100 µM in the test on MDA-MB-435.
